Results: patent US11180484B2, “Pyrazole derivatives as plasma kallikrein inhibitors” (KALVISTA PHARMACEUTICALS LIMITED, priority 2016, dated 2021)

Columns and labels:
[1] = biological target: T1, Human plasma kallikrein (Homo sapiens (Human), UniProt P03952); assay: Determination of the Ki for plasma kallikrein (mixed-model inhibition); type: biochemical; conditions: for Ki: human plasma kallikrein, mixed-model inhibition equation; for Alpha: parameter of the mixed-model equation indicating mechanism of inhibition
T1 sequence (P03952 391-638): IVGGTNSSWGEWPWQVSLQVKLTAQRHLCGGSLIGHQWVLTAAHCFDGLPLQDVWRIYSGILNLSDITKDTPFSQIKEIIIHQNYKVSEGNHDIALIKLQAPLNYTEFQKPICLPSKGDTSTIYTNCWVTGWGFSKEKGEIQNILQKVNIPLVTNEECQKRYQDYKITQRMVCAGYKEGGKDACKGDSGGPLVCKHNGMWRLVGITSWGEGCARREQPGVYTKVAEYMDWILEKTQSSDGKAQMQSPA
T1 sequence (P03952 20-390): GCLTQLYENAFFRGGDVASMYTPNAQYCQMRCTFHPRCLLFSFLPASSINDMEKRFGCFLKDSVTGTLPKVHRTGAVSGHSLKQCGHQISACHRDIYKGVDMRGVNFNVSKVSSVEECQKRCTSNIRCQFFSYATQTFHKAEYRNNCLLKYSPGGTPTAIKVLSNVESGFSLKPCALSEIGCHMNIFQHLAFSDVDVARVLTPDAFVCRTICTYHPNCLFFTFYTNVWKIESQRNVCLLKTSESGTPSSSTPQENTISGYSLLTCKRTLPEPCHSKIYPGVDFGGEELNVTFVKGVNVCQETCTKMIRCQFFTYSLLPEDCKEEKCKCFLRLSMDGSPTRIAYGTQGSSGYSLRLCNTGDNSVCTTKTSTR
Method: Plasma kallikrein inhibitory activity in vitro was determined using standard published methods (e.g. Johansen et al., Int. J. Tiss. Reac. 1986, 8, 185; Shori et al., Biochem. Pharmacol., 1992, 43, 1209; Sturzebecher et al., Biol. Chem. Hoppe-Seyler, 1992, 373, 1025). […]. Residual enzyme activity (initial rate of reaction) was determined by measuring the change in fluorescence at 410 nm. The Ki value for the test compound was determined using the mixed-model inhibition equation (based on Equation 3.2 in: RA Copeland, Evaluation of Enzyme Inhibitors in Drug Discovery, Wiley 2005) in GraphPad Prism. The mixed model equation includes competitive, uncompetitive and noncompetitive inhibition as special cases and the parameter of Alpha to indicate mechanism of inhibition.

[2] = biological target: Human Factor XIIa (Homo sapiens (Human), UniProt P00748); assay: Factor XIIa inhibitory activity in vitro; type: biochemical; conditions: 25° C., substrate H-DPro-Phe-Arg-AFC; read-out: IC50 (human FXIIa)
Sequence of Human Factor XIIa (P00748 373-615): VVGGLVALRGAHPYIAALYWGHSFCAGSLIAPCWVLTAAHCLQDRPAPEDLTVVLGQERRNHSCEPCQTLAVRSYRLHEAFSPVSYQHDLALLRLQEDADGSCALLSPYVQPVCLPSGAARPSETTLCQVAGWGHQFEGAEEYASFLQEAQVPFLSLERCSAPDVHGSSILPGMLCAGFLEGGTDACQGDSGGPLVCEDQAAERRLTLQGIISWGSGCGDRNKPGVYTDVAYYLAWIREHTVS
Method: (§1) Human Factor XIIa (Enzyme Research Laboratories) was incubated at 25° C. with the fluorogenic substrate H-DPro-Phe-Arg-AFC and various concentrations of the test compound. Residual enzyme activity (initial rate of reaction) was determined by measuring the change in […] at 410 nm and the IC50 value for the test compound was determined.

[3] = biological target: Human KLK1 (Homo sapiens (Human), UniProt P06870); assay: Determination of the IC50 for KLK1; type: biochemical; conditions: 25° C., substrate H-DVal-Leu-Arg-AFC
Sequence of Human KLK1 (P06870 25-262): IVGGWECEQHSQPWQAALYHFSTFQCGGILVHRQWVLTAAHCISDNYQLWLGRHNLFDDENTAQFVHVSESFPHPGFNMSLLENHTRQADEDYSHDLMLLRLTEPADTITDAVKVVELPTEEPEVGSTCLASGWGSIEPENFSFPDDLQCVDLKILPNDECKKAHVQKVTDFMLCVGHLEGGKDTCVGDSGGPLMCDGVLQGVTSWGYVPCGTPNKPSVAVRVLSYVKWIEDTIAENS
Method: as §1, with “KLK1 (Callbiochem)” for “Factor XIIa (Enzyme Research Laboratories)”, “H-DVal-Leu-Arg-AFC” for “H-DPro-Phe-Arg-AFC”

[4] = biological target: Human FXIa (Homo sapiens (Human), UniProt P03951); assay: Determination of the % inhibition / IC50 for FXIa; type: biochemical; conditions: for IC50: 25° C., substrate Z-Gly-Pro-Arg-AFC
Sequence of Human FXIa (P03951 388-625): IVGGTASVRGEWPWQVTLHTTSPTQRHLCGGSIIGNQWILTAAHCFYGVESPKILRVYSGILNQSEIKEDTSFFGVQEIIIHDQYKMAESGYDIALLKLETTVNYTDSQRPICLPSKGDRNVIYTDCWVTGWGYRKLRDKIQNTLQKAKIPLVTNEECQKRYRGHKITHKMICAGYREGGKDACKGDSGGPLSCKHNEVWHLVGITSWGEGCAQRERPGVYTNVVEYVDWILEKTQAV
Sequence of Human FXIa (P03951 19-387): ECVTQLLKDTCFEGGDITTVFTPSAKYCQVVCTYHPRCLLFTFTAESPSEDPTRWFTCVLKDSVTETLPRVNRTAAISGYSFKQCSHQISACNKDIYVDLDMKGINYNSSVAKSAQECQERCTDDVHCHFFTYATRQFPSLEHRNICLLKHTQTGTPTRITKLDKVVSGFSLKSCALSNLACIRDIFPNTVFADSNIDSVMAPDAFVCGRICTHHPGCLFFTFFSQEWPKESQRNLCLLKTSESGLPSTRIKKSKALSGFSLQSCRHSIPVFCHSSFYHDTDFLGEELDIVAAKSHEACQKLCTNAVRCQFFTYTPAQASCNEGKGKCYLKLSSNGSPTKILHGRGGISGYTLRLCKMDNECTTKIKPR
Method: FXIa inhibitory activity in vitro was determined using standard published methods (see e.g. Johansen et al., Int. J. Tiss. Reac. 1986, 8, 185; Shori et al., Biochem. Pharmacol., 1992, 43, 1209; Sturzebecher et al., Biol. Chem. Hoppe-Seyler, 1992, 373, 1025). […]

[5] = biological target: T1, Human plasma kallikrein; assay: Determination of the IC50 for plasma kallikrein; type: biochemical; conditions: 25° C., substrate H-DPro-Phe-Arg-AFC; read-out: IC50 (human PKal)
Method: as §1, with “plasma kallikrein (Protogen)” for “Factor XIIa (Enzyme Research Laboratories)”

[6] = Intrinsic clearance in rat liver microsomes; type: in vitro ADME; conditions: rat liver microsomes 0.5 mg/mL, 5 μM test compound, 37° C.; read-out: rat liver microsome (Clint μL/min/mg protein)
Method: (§2) Rat or human liver microsomes (0.5 mg/mL; Corning) were incubated with 5 μM test compound at 37° C. on a shaking platform (150 rpm). Samples were taken at 0, 6, 12, 18, 24 and 60 min and test compound concentrations were determined by LCMS against a calibration curve.

[7] = In vitro permeability, Caco-2 model for oral absorption; type: in vitro ADME; conditions: human, apical to basolateral, 50 μM test compound, 37° C.
Method: In vitro permeability was determined using the Caco-2 model for oral absorption. The methodology was adapted from standard published methods (Wang Z, Hop C. E., Leung K. H. and Pang J. (2000) J Mass Spectrom 35(1); 71-76). The Caco-2 monolayers were established in a Biocoat™ HTS fibrillar collagen 24 well multiwell insert system (1.0 μm, PET membrane, Corning 354803) in which 200,000 cells were seeded into each insert and maintained over 3 days before being utilised in the permeability assay. For the assay, 50 μM test compound is added to the apical side of the inserts and incubated for 1 hour at 37° C. on a shaking platform (120 rpm). Apical to basolateral transport was determined by measuring the test article in both compartments by LCMS following the 1 hour incubation. The integrity of the Caco-2 monolayers was confirmed by two methods, (i) comparison of pre- and post-experiment transepithelial electrical resistance (TEER) and, (ii) assessment of Lucifer Yellow flux.

[8] = Intrinsic clearance in human liver microsomes; type: in vitro ADME; conditions: human liver microsomes 0.5 mg/mL, 5 μM test compound, 37° C.; read-out: Human liver microsome (Clint μL/min/mg protein)
Method: as §2

[9] = Predicted plasma clearance (Clp), well-stirred model, human; type: in vitro ADME; conditions: percentage of hepatic blood flow
Method: (§3) The predicted plasma clearance (Clp) is calculated using the well-stirred model (Rowland M, Benet L Z, and Graham G G. Clearance concepts in pharmacokinetics. J Pharmacokinet Biopharm. (1973) 1:123-136.), one of several models that can be used to extrapolate the in vitro data. The model assumes instantaneous and complete mixing of drug within the liver and is a function of intrinsic clearance, hepatic blood flow and free fraction of drug in the blood. The predicted plasma clearance in mL/min/kg is presented as a percentage of hepatic blood flow (LBF).

[10] = Plasma protein binding (PPB), rapid equilibrium dialysis, human plasma; type: in vitro ADME; conditions: 5 μM test compound, dialysis 5 hrs at 37° C.
Method: The fraction unbound in plasma was determined using ThermoScientific™ Pierce™ Rapid Equilibrium Dialysis Technology (Single-Use plate with inserts, 8K MWCO). […] Reference samples from the non-dialysed plasma were taken before the incubation to enable an assessment of recovery. Test compound concentrations were determined in plasma and buffer compartments by LCMS against a calibration curve. […] Results are presented as percent plasma protein bound (% PPB).

[11] = Predicted plasma clearance (Clp), well-stirred model, rat; type: in vitro ADME; conditions: percentage of hepatic blood flow
Method: as §3

[12] = Plasma protein binding (PPB), rapid equilibrium dialysis, rat plasma; type: in vitro ADME; conditions: 5 μM test compound, dialysis 5 hrs at 37° C.
Method: The fraction unbound in plasma was determined using ThermoScientific™ Pierce™ Rapid Equilibrium Dialysis Technology (Single-Use plate with inserts, 8K MWCO). 5 μM test compound was spiked into human or rat plasma (300 μL) and dialysed against 146.5 mM phosphate buffer (500 μL) for 5 hrs at 37° C., shaking at 1200 rpm. Reference samples from the non-dialysed plasma were taken before the incubation to enable an assessment of recovery. Test compound concentrations were determined in plasma and buffer compartments by LCMS against a calibration curve. The fraction unbound in plasma was determined using standard methodology (Waters N J et al (2008) J Pharm Sci 97(10); 4586-95). Results are presented as percent plasma protein bound (% PPB).

Compound	Ki [1] [nM]	Alpha [1]	IC50 [2] [µM]	IC50 [3] [µM]	IC50 [4] [µM]	IC50 [5] [nM]	microsomal CLint at 5 μM [6] [µL/min/mg]	Papp at 1 h, 50 μM [7] [×10⁻⁶ cm/s]	microsomal CLint at 5 μM [8] [µL/min/mg]	Predicted in vivo human Clp (% LBF) [9] [% LBF]	fraction unbound at 5 h, 5 μM [10]	Predicted in vivo rat Clp (% LBF) [11] [% LBF]	fraction unbound at 5 h, 5 μM [12]	inhibition at 40 µM ([4]; 40 μM test compound, read-out: % Inhibition @ 40 μM (human FXIa)) [%]
COc1cccc(CNC(=O)c2cn(Cc3ccc(Cn4ccccc4=O)cc3)nc2N)c1F [Reference Example B, 3-Amino-1-[4-(2-oxo-2H-pyridin-1-ylmethyl)-benzyl]-1H-pyrazole-4-carboxylic acid 2-fluoro-3-methoxy-benzylamide, reference compound]	6.7	48	> 40	> 10	> 40	–	–	–	–	–	–	–	–	–
COc1ccnc(CNC(=O)c2cn(Cc3ccc(Cn4ccccc4=O)cc3)nc2N(C)C)c1F [Example 7, 3-(dimethylamino)-N-[(3-fluoro-4-methoxypyridin-2-yl)methyl]-1-({4-[(2-oxopyridin-1-yl)methyl]phenyl}methyl)pyrazole-4-carboxamide]	–	–	> 40	> 40	> 40	18	8	10	22	–	–	–	–	–
COCc1nn(Cc2ccc(Cn3ccccc3=O)cn2)cc1C(=O)NCc1c(C#N)ccc(OC)c1F [Example 51, N-[(6-cyano-2-fluoro-3-methoxyphenyl)methyl]-3-(methoxymethyl)-1-({5-[(2-oxopyridin-1-yl)methyl]pyridin-2-yl}methyl)pyrazole-4-carboxamide]	–	–	> 4	> 4	> 40	21.3	25	3	30	–	–	–	–	–
Nc1nn(Cc2ccc(Cn3ccccc3=O)cc2)cc1C(=O)NCc1cc(Cl)ccc1-n1cnnn1 [Example 71, 3-amino-N-{[5-chloro-2-(1,2,3,4-tetrazol-1-yl)phenyl]methyl}-1-({4-[(2-oxopyridin-1-yl)methyl]phenyl}methyl)pyrazole-4-carboxamide]	–	–	> 4	> 4	4.6	0.3	17	1	17	–	–	–	–	–
COCc1nn(Cc2ccc(Cn3ccccc3=O)cc2)cc1C(=O)NCc1cc(F)ccc1-n1cnnn1 [Example 49, N-{[5-fluoro-2-(1,2,3,4-tetrazol-1-yl)phenyl]methyl}-3-(methoxymethyl)-1-({4-[(2-oxopyridin-1-yl)methyl]phenyl}methyl)pyrazole-4-carboxamide]	–	–	> 4	> 4	> 40	15.9	36	6	18	–	–	–	–	–
COCc1nn(Cc2cnc(N3CCC(F)(F)C3)nc2)cc1C(=O)NCc1cc(OC)ccc1-n1cnnn1 [Example 88, 1-{[2-(3,3-difluoropyrrolidin-1-yl)pyrimidin-5-yl]methyl}-N-{[5-methoxy-2-(1,2,3,4-tetrazol-1-yl)phenyl]methyl}-3-(methoxymethyl)pyrazole-4-carboxamide]	2.9	–	> 40	> 40	4.88	8.3	–	–	–	–	–	–	–	–
COc1ccnc(CNC(=O)c2cn(Cc3ccc(Cn4ccccc4=O)cc3)nc2N)c1F [Example 5, 3-amino-N-[(3-fluoro-4-methoxypyridin-2-yl)methyl]-1-({4-[(2-oxopyridin-1-yl)methyl]phenyl}methyl)pyrazole-4-carboxamide]	–	–	> 40	> 40	> 40	2	6	2	3	3	0.23	5	0.36	–
COCc1nn(Cc2ccc(Cn3cccn3)cc2)cc1C(=O)NCc1cccc(Cl)c1 [Reference Example I, reference compound]	–	–	> 40	> 40	> 40	2020	153	15	77	–	–	–	–	–
COc1ccc(-n2cnnn2)c(CNC(=O)c2cn(Cc3ccc(N4CCCC4)nc3)nc2C(F)(F)F)c1F [Example 83, N-{[2-fluoro-3-methoxy-6-(1,2,3,4-tetrazol-1-yl)phenyl]methyl}-1-{[6-(pyrrolidin-1-yl)pyridin-3-yl]methyl}-3-(trifluoromethyl)pyrazole-4-carboxamide]	0.53	2.24	> 40	> 40	0.23	0.3	–	23	–	–	–	–	–	–
COc1ccc(C#N)c(CNC(=O)c2cn(Cc3ccc(Cn4ccccc4=O)cc3)nc2N(C)C)c1F [Example 44, N-[(6-cyano-2-fluoro-3-methoxyphenyl)methyl]-3-(dimethylamino)-1-({4-[(2-oxopyridin-1-yl)methyl]phenyl}methyl)pyrazole-4-carboxamide]	–	–	> 40	> 80	> 40	8.8	101	17	162	–	–	–	–	32
